From the NIST ThermoML archive (doi:10.1021/je5002945) come the findings set out here.

Each structure is given as a SMILES string. Numbers after ± are expanded uncertainties.

For the series the following is noted: 101.33 kPa, Liquid, Vibrating tube method.

In general, mass density refers to mass per unit of volume. For the compound `CC(=O)N(C)C` [N,N-dimethylethanamide], the mass density (293.15 K) is listed as 940.92 ± 0.23 kg/m3; the mass density (298.15 K) came out at 936.3 ± 0.23 kg/m3; the mass density (303.15 K) came to 931.62 ± 0.23 kg/m3; the mass density (308.15 K) stood at 926.89 ± 0.23 kg/m3; the mass density (313.15 K) came to 922.09 ± 0.23 kg/m3; the mass density (318.15 K) was 917.23 ± 0.23 kg/m3. The mass density (323.15 K) is on record as 912.23 ± 0.23 kg/m3.

Take `CCNC=O` [N-ethylformamide]: the mass density turned out to be 951.59 ± 0.23 kg/m3 (293.15 K); 947.48 ± 0.23 kg/m3 (298.15 K); 943.29 ± 0.23 kg/m3 (303.15 K); 939.04 ± 0.23 kg/m3 (308.15 K); 934.78 ± 0.23 kg/m3 (313.15 K); 930.45 ± 0.23 kg/m3 (318.15 K). The mass density (323.15 K) was 926.06 ± 0.23 kg/m3.

For the compound `CCCCN(C=O)CCCC` [N,N-dibutylformamide], the mass density is recorded as 879.05 ± 0.23 kg/m3 (293.15 K); 875.12 ± 0.23 kg/m3 (298.15 K); 871.17 ± 0.23 kg/m3 (303.15 K); 867.15 ± 0.23 kg/m3 (308.15 K); 863.11 ± 0.23 kg/m3 (313.15 K); 859.01 ± 0.23 kg/m3 (318.15 K). The mass density (323.15 K) was 854.82 ± 0.23 kg/m3.

Consider `CN(C)C=O` [dimethylformamide], for which the mass density runs as follows: (293.15 K) 948.72 ± 0.07 kg/m3; (298.15 K) 943.86 ± 0.07 kg/m3; (303.15 K) 939 ± 0.07 kg/m3; (308.15 K) 934.08 ± 0.07 kg/m3; (313.15 K) 929.13 ± 0.08 kg/m3; (318.15 K) 924.06 ± 0.08 kg/m3. Further, where the note is “323.15 K”, the mass density was found to be 918.96 ± 0.08 kg/m3.

Take `CNC=O` [N-methylformamide]: the mass density by setting is: (293.15 K) 1003.35 ± 0.23 kg/m3; (298.15 K) 998.91 ± 0.23 kg/m3; (303.15 K) 994.49 ± 0.23 kg/m3; (308.15 K) 990.01 ± 0.23 kg/m3; (313.15 K) 985.47 ± 0.23 kg/m3; (318.15 K) 980.88 ± 0.23 kg/m3. In addition, the mass density (323.15 K) worked out at 976.24 ± 0.23 kg/m3.
